{
  "source": "patent US20060276502A1",
  "about": "“Pharmaceutical use of 1-azabicyclo[2.2.2]octanes and a method of testing compounds for the ability of activating inactive wt p53” (priority 2003, published 2006)",
  "key": {"[1]": {"target": "T1, wt p53 (Homo sapiens, UniProt P04637)", "T1 construct": "endogenous in cells; host or cells: M21, M21L and AA human melanoma cells", "experiment": "p53 conformation by ELISA with Pab 1620, Pab 240 and DO 1 in melanoma cells in 3D-collagen", "assay_type": "cell-based", "description": "Data shown in FIG. 2D represents Pab 1620 and Pab 240 reactivity as percentage of D01 reactivity (total p53).\nPRIMA-1 is a substance known from WO0224692 to be able to reactivate the apoptosis-inducing function of mutant p53 proteins. […] The p53 conformation was examined as described above. […] To this end, p53 conformation was also analyzed in AA human melanoma cells expressing αv β3 integrin and wt p53 before and after incubation within 3D collagen (FIG. 4B)."}, "[2]": {"test_system": "M21 human melanoma cells", "experiment": "Apoptosis by FITC-Annexin-V staining / FACS of M21 melanoma cells", "assay_type": "cell-based", "description": "With reference to FIG. 1A, the maternal human melanoma cells M21, expressing integrin αvβ3, and a subpopulation, M21L, lacking integrin αvβ3 were cultured in a three-dimensional collagen gel (3D-collagen). At indicated times, apoptosis was detected by FITC-Annexin-V staining.\nApoptosis was analyzed in M21 cells grown under 2D culture conditions or within 3D-collagen with or without PRIMA-1 treatment for 16, 24, 36 and 48 h. […] This also verifies the results using dn p53 and p53-siRNA (FIG. 3) in an independent manner."}, "[3]": {"test_system": "p53", "experiment": "Western blot of p53 acetylation and p53 target proteins in M21 tumours grown in nude mice after a single PRIMA-1 injection", "assay_type": "in vivo", "settings": "24 h and 36 h after single injection", "excerpt": "Thus, acetylation of p53-Lys382 is potentially involved in p53 activation by PRIMA-1, while Apaf-1 and PUMA are potential downstream mediators of PRIMA-1- and p53-induced melanoma cell apoptosis in vivo."}, "[4]": {"test_system": "Caspase 9", "experiment": "Western blot of Caspase 9 activation in M21 tumours grown in nude mice", "assay_type": "in vivo", "settings": "24 h and 36 h after single injection", "excerpt": "Caspase 9 is therefore a potential downstream effector of PRIMA-1- and p53-induced apoptosis in melanoma cells in vivo."}, "[5]": {"test_system": "M21 melanoma cells (wt p53)", "experiment": "M21 melanoma tumour growth s.c. in C57/BL nude mice", "assay_type": "in vivo", "settings": "100 mg/kg for 6 d starting 6 d after inoculation, versus PBS control", "description": "(§1) Tumour volumes were monitored for melanoma growth, as described in the preceding paragraph. Tumour volume over time was determined by the formula: width^2×length×0,52. […] In the Figure, ♦ represents M21; □ M21L; ▴ Lp53His175-0; and ★ Lp53His175-8. M21Lp53His175-0 and M21Lp53His175-8 formed large tumours similar in size to M21 tumours. However, M21L cells lacking integrin αvβ3 typically grew only minimal or developed no tumours.\n(§2) To test if restoration of an active wt p53 conformation by PRIMA-1 could also induce melanoma cell apoptosis in vivo and thereby block melanoma tumour growth, M21 and C8161 melanoma cells (1,5×10^6) were injected s.c. into the back of 6-week-old C57/BL nude mice. The mice were treated with or without PRIMA-1 (100 mg/kg) for 6 d starting 6 d after tumour innoculation."}, "[6]": {"test_system": "C8161 melanoma cells (truncated, unfunctional p53)", "experiment": "C8161 melanoma tumour growth s.c. in C57/BL nude mice", "assay_type": "in vivo", "settings": "100 mg/kg for 6 d starting 6 d after inoculation", "description": "as §1, §2"}, "[7]": {"test_system": "caspase-8", "experiment": "Western blot for cleavage of caspase-8, control Jurkat cells", "assay_type": "cell-based", "settings": "cycloheximide-treated Jurkate cells"}},
  "data": [
    {"molecule": "O=C1C2CCN(CC2)C1(CO)CO", "note": "[PRIMA-1, 2,2-bis(hydroxymethyl)-1-azabicyclo[2.2.2]octan-3-one]", "values": [
      {"measurement": "p53 conformation (Pab 1620 / Pab 240 reactivity)", "setting": "[1]; AA human melanoma cells (αvβ3, wt p53), 100 μM PRIMA-1, 5 d in 3D collagen", "value": "enforced p53 into an active conformation"},
      {"measurement": "p53 conformation (Pab 1620 / Pab 240 reactivity)", "setting": "[1]; M21 cells (αvβ3+), 100 μM PRIMA-1, 3D-collagen, 7 d", "value": "restore active p53 conformation from an unfolded inactive state"},
      {"measurement": "apoptosis (Annexin V staining)", "setting": "[2]; 100 μM PRIMA-1, 16, 24, 36 and 48 h, 3D collagen versus 2D culture", "value": "promoted apoptosis in M21 cells (αvβ3+) within 3D collagen to a much higher degree than in 2D culture"},
      {"measurement": "apoptosis (Annexin-V staining)", "setting": "[2]; 36 h in 3D collagen, 80 μM PRIMA-1", "value": "induces melanoma cell apoptosis"},
      {"measurement": "Apaf-1 protein level", "setting": "[3]", "value": "induces"},
      {"measurement": "PUMA protein level", "setting": "[3]", "value": "induces"},
      {"measurement": "acetylation of p53-Lys382", "setting": "[3]", "value": "induces"},
      {"measurement": "activation of Caspase 9", "setting": "[4]", "value": "activation of Caspase 9"},
      {"measurement": "melanoma growth (mean tumour volume)", "setting": "[5]", "value": "significantly inhibited"},
      {"measurement": "melanoma growth (mean tumour volume)", "setting": "[6]", "value": "no effect"}
    ]},
    {"molecule": "C[C@@H]1C[C@@H]([C@H](O)CC2CC(=O)NC(=O)C2)C(=O)[C@@H](C)C1", "note": "[cycloheximide]", "values": [
      {"measurement": "caspase-8 cleavage", "setting": "[7]", "value": "displayed caspase-8 cleavage"}
    ]},
    {"molecule": "Z-LEHD-FMK x TFA [reference compound]", "values": [
      {"measurement": "effect on PRIMA-1 induced apoptosis", "setting": "[2]; 36 h in 3D-collagen, with 80 μM PRIMA-1", "value": "blocked"}
    ]}
  ]
}
